Laboratory results reported in patent publication US8143265B2, “Method of treating atherosclerosis” (Meharry Medical College, priority 2007, dated 2012).

What was measured:
eIF-2α phosphorylation = assay: E−/B48 lipoprotein-induced eIF2α phosphorylation in MPMs; type: cell-based, mouse; conditions: addition to culture medium or transfection, data not shown
From the text: 3. ApoE-deficient lipoproteins induce eIF-2α phosphorylation. […] We also observed that addition of 2-AP to culture medium or transfection of a nonphosphorylatable eIF2α mutant to MPMs attenuated E^−/B48 lipoprotein-induced eIF2α phosphorylation (not shown).

[1] = tested on: mouse peritoneal macrophages; assay: E−/B48 lipoprotein-induced foam cell formation, confocal microscopy of DiI and LysoTracker staining; type: cell-based; conditions: MPMs, 20 μg/ml DiI-labeled E−/B48 lipoproteins plus 2 mM 2-AP, 48 hrs
Protocol: FIG. 2. Mouse peritoneal macrophages were treated with 20 μg/ml DiI-labeled E^−/B48 lipoproteins, 20 μg/ml E^−/B48 lipoproteins plus 2 mM 2-AP, or culture medium alone (control) for 48 hrs. The cells were then stained with LysoTracker, which is used to localize lysosomes. Confocal microscopy images were captured, and the merged images are an overlay of the differential interference contrast (DIC) images and the fluorescence images of intracellular DiI and LysoTracker staining. Co-localization of DiI and LysoTracker staining indicates lipoprotein accumulation in the lysosomes. 2. Inhibition of eIF-2α phosphorylation by 2-AP represses E^−/B48 lipoprotein-induced foam cell formation in vitro. We previously reported that incubation of mouse peritonea macrophages (MPMs) with E^−/B48 lipoproteins induces lipid droplet accumulation in the cytoplasm. In some cells, E^−/B48 lipoproteins caused the cytoplasm to be almost entirely accumulated lipids, giving these cells a foam cell like appearance^12. In the present study, we used a confocal microscopy to localize the accumulated lipids in MPMs and to assess the effect of 2-AP on this localization.

ApoE−/− mice = assay: Atherosclerosis development in ApoE−/− mice with oral feeding of 2-AP; type: in vivo, mouse
Protocol: FIG. 1. ApoE^−/− mice at 5 weeks of age were treated with 200 mg/kg BW of 2-AP or equal volume of water as control via gavage feeding. This procedure was repeated once every other day for […]. A. Heart-aorta samples were collected from mice at 6 months of age (n=12 for each group of mice). Sequential 8-μm thick sections were cut from the mouse aortic root. The area (μm^2) of atherosclerotic lesions in the section was measured. B. Aortas from the aortic root to the iliac bifurcation were collected, and the area of atherosclerotic lesions and the total area of the aortic surface were measured, data are expressed as the percent of aortic surface area covered by atherosclerotic lesions. Data are expressed as the mean±SEM. *P<0.05 as compared to untreated control mice. 1. Inhibition of eIF-2α phosphorylation by 2-AP delays the development of atherosclerosis in ApoE^−/− mice: We find that oral feeding of 2-AP reduces the mean size of atherosclerotic lesions in the aorta root and the aorta tree by about 45% and 37%, respectively. […] These findings provide evidence that development of atherosclerosis in ApoE^−/− mice is associated with an increased eIF-2α phosphorylation and that inhibition of eIF-2α phosphorylation via in vivo treatment with 2-AP delays the development of atherosclerosis.

[2] = tested on: mouse peritoneal macrophages; assay: E−/B48 lipoprotein degradation and lipoprotein and cholesterol ester accumulation in MPMs; type: cell-based; conditions: addition to culture medium or transfection, data not shown
From the text: 4. Inhibition of eIF-2α phosphorylation increases macrophage lipoprotein degradation, and suppresses cholesterol ester and lipoprotein accumulation in macrophages. We observed that E^−/B48 lipoproteins induced a time-related accumulation of cholesterol ester and lipoproteins in MPMs, which is associated with a reduced degradation rate of E^−/B48 lipoproteins. The addition of 2-AP to culture medium or transfection of a nonphosphorylatable eIF-2α mutant to MPMs enhances E^−/B48 lipoprotein degradation, and reduces E^−/B48 lipoprotein and cholesterol ester accumulation (data not shown).

[3] = tested on: lysosomal hydrolases, including cathepsin B and lysosomal acid lipase; assay: E−/B48 lipoprotein-induced suppression of lysosomal hydrolases in MPMs; type: cell-based, mouse; conditions: data not shown
From the text: 5. Inhibition of eIF-2α phosphorylation attenuates E^−/B48 lipoprotein-induced suppressive effect on lysosomal hydrolases. […] We also observed that 2-AP and the nonphosphorylatable eIF-2α mutant attenuated the suppressive effect of E^−/B48 lipoproteins on lysosomal hydrolases (data not shown). It is highly likely that E^−/B48 lipoprotein-induced eIF-2α phosphorylation down-regulates macrophage lysosomal hydrolases, which in turn reduces the degradation of the lipid and protein components of E^−/B48 lipoproteins, leading to lipoprotein accumulation in the lysosomes and triggering foam cell formation.

mRNA translation = assay: E−/B48 lipoprotein-induced suppression of mRNA translation; type: cell-based; conditions: data not shown
From the text: 6. Inhibition of eIF-2α phosphorylation attenuates E^−/B48 lipoprotein-induced suppression on mRNA translation. We observed that E^−/B48 lipoproteins reduced lysosomal hydrolases, due mainly to suppressing the translation of mRNAs encoding these proteins, and that 2-AP attenuated the suppressive effect of E^−/B48 lipoproteins on mRNA translation (data not shown).

[4] = ApoE−/− mice, 200 mg/kg BW 2-AP by gavage once every other day for 24 weeks, vs untreated control
[5] = ApoE−/− mice, 200 mg/kg BW once every other day for 24 weeks, 6-hr fasting

Compound: Nc1ncc2[nH]cnc2n1 [2-AP, 7H-purin-2-amine]
- E−/B48 lipoprotein-induced eIF2α phosphorylation (eIF-2α phosphorylation): attenuated
- level of staining with DiI (intralysosomal lipid accumulation) [1]: markedly reduced
- body weight (ApoE−/− mice; 2-AP treatment of ApoE−/− mice): did not alter
- food intake (ApoE−/− mice; 2-AP treatment of ApoE−/− mice): did not alter
- advanced lesions (e.g., fibrous caps and acellular areas) (ApoE−/− mice; 2-AP-treated ApoE−/− mice): reduced markedly
- reduction of mean size of atherosclerotic lesions in the aorta root (ApoE−/− mice; [4]): about 45%
- reduction of mean size of atherosclerotic lesions in the aorta tree (ApoE−/− mice; [4]): ~37%
- plasma glucose levels (ApoE−/− mice; [5]): did not alter
- plasma insulin levels (ApoE−/− mice; [5]): did not alter
- plasma lipid levels (ApoE−/− mice; [5]): did not alter
- phosphorylated eIF-2α immunostaining in the atherosclerotic lesions (ApoE−/− mice; immunohistology, 2-AP-treated vs untreated ApoE−/− mice): significantly reduced
- E−/B48 lipoprotein accumulation [2]: reduces
- E−/B48 lipoprotein degradation [2]: enhances
- cholesterol ester accumulation [2]: reduces
- suppressive effect of E−/B48 lipoproteins on lysosomal hydrolases [3]: attenuated
- suppressive effect of E−/B48 lipoproteins on mRNA translation (mRNA translation): attenuated
